SMILES strings stand for the structures.

Our source for the IKZF2 % protein reduction values is patent US11192877B2, “3-(5-hydroxy-1-oxoisoindolin-2-yl)piperidine-2,6-dione derivatives and uses thereof” (Novartis AG, priority 2018, dated 2021).

The target of one test is IKZF2 (Helios) (Homo sapiens, UniProt Q96SW2+Q9UKS7). Put plainly: Prolabel quantification of IKZF2 protein levels in 293GT cells. In kind it is cell-based. Particulars: 24 h, Pro-label assay, 293GT cells, 10 μM, read-out: IKZF2 % protein reduction at 10 μM, 24 h.
Sequence of IKZF2 (Helios) (Q9UKS7 whole entry): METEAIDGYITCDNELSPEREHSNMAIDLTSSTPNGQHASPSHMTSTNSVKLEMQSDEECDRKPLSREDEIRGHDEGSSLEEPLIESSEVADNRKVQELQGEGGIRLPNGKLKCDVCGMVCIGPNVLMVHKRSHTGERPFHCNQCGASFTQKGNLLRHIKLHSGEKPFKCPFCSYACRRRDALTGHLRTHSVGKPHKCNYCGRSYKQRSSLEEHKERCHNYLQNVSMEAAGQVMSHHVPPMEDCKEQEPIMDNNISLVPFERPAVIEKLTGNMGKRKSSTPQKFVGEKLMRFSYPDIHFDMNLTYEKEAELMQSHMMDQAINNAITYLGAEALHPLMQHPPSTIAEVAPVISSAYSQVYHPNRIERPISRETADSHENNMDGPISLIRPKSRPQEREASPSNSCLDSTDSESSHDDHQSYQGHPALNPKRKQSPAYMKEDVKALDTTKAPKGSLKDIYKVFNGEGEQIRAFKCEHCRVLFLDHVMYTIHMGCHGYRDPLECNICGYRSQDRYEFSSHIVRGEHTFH
Sequence of IKZF2 (Helios) (Q96SW2 whole entry): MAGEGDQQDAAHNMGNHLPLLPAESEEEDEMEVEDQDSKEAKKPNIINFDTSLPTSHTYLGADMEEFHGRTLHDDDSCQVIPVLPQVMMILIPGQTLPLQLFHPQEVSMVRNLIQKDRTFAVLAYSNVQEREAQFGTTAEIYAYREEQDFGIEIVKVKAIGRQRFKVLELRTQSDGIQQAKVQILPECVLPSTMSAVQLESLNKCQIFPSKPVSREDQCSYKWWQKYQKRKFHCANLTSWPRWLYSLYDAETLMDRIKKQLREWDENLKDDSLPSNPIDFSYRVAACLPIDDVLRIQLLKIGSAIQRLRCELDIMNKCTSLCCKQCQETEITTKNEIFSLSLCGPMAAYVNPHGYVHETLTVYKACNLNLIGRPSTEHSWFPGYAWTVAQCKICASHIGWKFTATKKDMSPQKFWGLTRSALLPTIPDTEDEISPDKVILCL
Sequence of IKZF2 (Helios) (Q16531 whole entry partner): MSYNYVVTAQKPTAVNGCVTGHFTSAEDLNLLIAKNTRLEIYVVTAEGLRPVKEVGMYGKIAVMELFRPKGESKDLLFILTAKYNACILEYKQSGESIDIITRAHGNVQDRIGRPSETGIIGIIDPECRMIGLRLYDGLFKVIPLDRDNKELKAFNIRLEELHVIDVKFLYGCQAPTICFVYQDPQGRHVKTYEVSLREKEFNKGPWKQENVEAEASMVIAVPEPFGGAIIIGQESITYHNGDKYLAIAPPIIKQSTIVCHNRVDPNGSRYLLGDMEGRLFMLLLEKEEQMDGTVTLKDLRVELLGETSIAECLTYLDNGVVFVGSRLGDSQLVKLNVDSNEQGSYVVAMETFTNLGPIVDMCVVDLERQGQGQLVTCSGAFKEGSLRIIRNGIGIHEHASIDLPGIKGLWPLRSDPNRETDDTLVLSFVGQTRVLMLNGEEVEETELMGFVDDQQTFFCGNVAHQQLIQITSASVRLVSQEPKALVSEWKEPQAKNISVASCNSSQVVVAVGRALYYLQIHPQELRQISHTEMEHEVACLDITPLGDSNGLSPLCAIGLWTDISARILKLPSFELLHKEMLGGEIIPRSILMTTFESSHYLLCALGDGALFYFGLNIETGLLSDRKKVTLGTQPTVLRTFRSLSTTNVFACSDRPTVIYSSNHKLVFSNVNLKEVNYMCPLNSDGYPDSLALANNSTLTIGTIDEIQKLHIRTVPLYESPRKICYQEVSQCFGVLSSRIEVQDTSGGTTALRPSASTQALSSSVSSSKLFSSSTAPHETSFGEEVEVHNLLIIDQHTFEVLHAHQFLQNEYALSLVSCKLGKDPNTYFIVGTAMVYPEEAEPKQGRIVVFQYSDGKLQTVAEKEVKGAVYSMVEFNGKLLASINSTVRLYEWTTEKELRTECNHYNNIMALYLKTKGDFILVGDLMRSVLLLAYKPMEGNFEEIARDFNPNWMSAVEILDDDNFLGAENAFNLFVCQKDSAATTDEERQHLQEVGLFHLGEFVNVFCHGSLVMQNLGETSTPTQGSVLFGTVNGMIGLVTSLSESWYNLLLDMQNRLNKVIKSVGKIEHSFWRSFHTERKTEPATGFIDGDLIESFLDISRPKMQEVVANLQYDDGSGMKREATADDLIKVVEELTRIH
For the compound `O=C1CCC(N2Cc3cc(O[C@H]4CCCC[C@@H]4N4CC(OCC(F)(F)F)C4)ccc3C2=O)C(=O)N1` (stereo partly drawn) [I-49, 3-(1-oxo-5-(((1S,2S)-2-(3-(2,2,2-trifluoroethoxy)azetidin-1-yl)cyclohexyl)oxy)isoindolin-2-yl)piperidine-2,6-dione], the IKZF2 % protein reduction at 10 µM turned out to be 86%.
Still for that read-out and setting: next, `O=C1CCC(N2Cc3cc(O[C@H]4CCCC[C@@H]4N4CC(OCC(F)F)C4)ccc3C2=O)C(=O)N1` (stereo partly drawn) [I-50, 3-(5-(((1S,2S)-2-(3-(2,2-difluoroethoxy)azetidin-1-yl)cyclohexyl)oxy)-1-oxoisoindolin-2-yl)piperidine-2,6-dione]: 85%.
The same measure, in the same setting: to `O=C1CCC(N2Cc3cc(O[C@H]4CCCC[C@@H]4N4CC(OCC5CC5)C4)ccc3C2=O)C(=O)N1` (stereo partly drawn) [I-51, 3-(5-(((1S,2S)-2-(3-(cyclopropylmethoxy)azetidin-1-yl)cyclohexyl)oxy)-1-oxoisoindolin-2-yl)piperidine-2,6-dione] belongs 90%; to `O=C1CCC(N2Cc3cc(O[C@H]4CCC[C@@H]4N4CC(OCc5ccccc5)C4)ccc3C2=O)C(=O)N1` (stereo partly drawn) [I-52, 3-(5-(((1S,2S)-2-(3-(benzyloxy)azetidin-1-yl)cyclopentyl)oxy)-1-oxoisoindolin-2-yl)piperidine-2,6-dione], 89%; to `CC(C)OC1CN([C@H]2CCCC[C@@H]2Oc2ccc3c(c2)CN(C2CCC(=O)NC2=O)C3=O)C1` (stereo partly drawn) [I-53, 3-(5-(((1S,2S)-2-(3-isopropoxyazetidin-1-yl)cyclohexyl)oxy)-1-oxoisoindolin-2-yl)piperidine-2,6-dione], 88%.
Still for that read-out and setting: next, `O=C1CCC(N2Cc3cc(O[C@H]4CCCC[C@@H]4N4CC(OCc5ccccc5)C4)ccc3C2=O)C(=O)N1` (stereo partly drawn) [I-54, 3-(5-(((1S,2S)-2-(3-(benzyloxy)azetidin-1-yl)cyclohexyl)oxy)-1-oxoisoindolin-2-yl)piperidine-2,6-dione]: 91%.
As for `CCOC1CN([C@H]2CCCCC[C@@H]2Oc2ccc3c(c2)CN(C2CCC(=O)NC2=O)C3=O)C1` (stereo partly drawn) [I-55, 3-(5-(((1S,2S)-2-(3-ethoxyazetidin-1-yl)cycloheptyl)oxy)-1-oxoisoindolin-2-yl)piperidine-2,6-dione], the IKZF2 % protein reduction at 10 µM is 91%.
On the same count and under the same terms, next, `O=C1CCC(N2Cc3cc(O[C@H]4CCCC[C@@H]4N4CC(OC5CC(F)(F)C5)C4)ccc3C2=O)C(=O)N1` (stereo partly drawn) [I-56, 3-(5-(((1S,2S)-2-(3-(3,3-difluorocyclobutoxy)azetidin-1-yl)cyclohexyl)oxy)-1-oxoisoindolin-2-yl)piperidine-2,6-dione]: 91%; `COC1(C)CCN([C@H]2CCCCC[C@@H]2Oc2ccc3c(c2)CN(C2CCC(=O)NC2=O)C3=O)CC1` (stereo partly drawn) [I-60, 3-(5-(((1S,2S)-2-(4-methoxy-4-methylpiperidin-1-yl)cycloheptyl)oxy)-1-oxoisoindolin-2-yl)piperidine-2,6-dione]: 61%.
Take `CC(C)CN[C@H]1CCCCC[C@@H]1Oc1ccc2c(c1)CN(C1CCC(=O)NC1=O)C2=O` (stereo partly drawn) [I-61, 3-(5-(((1S,2S)-2-(isobutylamino)cycloheptyl)oxy)-1-oxoisoindolin-2-yl)piperidine-2,6-dione]: the IKZF2 % protein reduction at 10 µM was 84%.
Same read-out and setting: to `CCCN[C@H]1CCCCC[C@@H]1Oc1ccc2c(c1)CN(C1CCC(=O)NC1=O)C2=O` (stereo partly drawn) [I-62, 3-(1-oxo-5-(((1S,2S)-2-(propylamino)cycloheptyl)oxy)isoindolin-2-yl)piperidine-2,6-dione] belongs 88%.
The same measure, in the same setting: to `O=C1CCC(N2Cc3cc(O[C@H]4CCCCC[C@@H]4N4CC5(COC5)C4)ccc3C2=O)C(=O)N1` (stereo partly drawn) [I-63, 3-(5-(((1S,2S)-2-(2-oxa-6-azaspiro[3.3]heptan-6-yl)cycloheptyl)oxy)-1-oxoisoindolin-2-yl)piperidine-2,6-dione] belongs 85%.
Same read-out and setting: next, `CO[C@H]1CC[C@H](CN[C@H]2CCCCC[C@@H]2Oc2ccc3c(c2)CN(C2CCC(=O)NC2=O)C3=O)CC1` (stereo partly drawn) [I-64, 3-(5-(((1S,2S)-2-((((1r,4S)-4-methoxycyclohexyl)methyl)amino)cycloheptyl)oxy)-1-oxoisoindolin-2-yl)piperidine-2,6-dione]: 84%.
On to `O=C1CCC(N2Cc3cc(O[C@H]4CCCCC[C@@H]4NCC4CCOCC4)ccc3C2=O)C(=O)N1` (stereo partly drawn) [I-65, 3-(1-oxo-5-(((1S,2S)-2-(((tetrahydro-2H-pyran-4-yl)methyl)amino)cycloheptyl)oxy)isoindolin-2-yl)piperidine-2,6-dione], for which the IKZF2 % protein reduction at 10 µM stood at 76%.
On the same count and under the same terms, next, `CC1(CN[C@H]2CCCCC[C@@H]2Oc2ccc3c(c2)CN(C2CCC(=O)NC2=O)C3=O)COC1` (stereo partly drawn) [I-66, 3-(5-(((1S,2S)-2-(((3-methyloxetan-3-yl)methyl)amino)cycloheptyl)oxy)-1-oxoisoindolin-2-yl)piperidine-2,6-dione]: 81%; `O=C1CCC(N2Cc3cc(O[C@H]4CCCCC[C@@H]4NCC45CC(F)(C4)C5)ccc3C2=O)C(=O)N1` (stereo partly drawn) [I-67, 3-(5-(((1S,2S)-2-(((3-fluorobicyclo[1.1.1]pentan-1-yl)methyl)amino)cycloheptyl)oxy)-1-oxoisoindolin-2-yl)piperidine-2,6-dione]: 74%; `COC1CN([C@H]2CCCCC[C@@H]2Oc2ccc3c(c2)CN(C2CCC(=O)NC2=O)C3=O)C1` (stereo partly drawn) [I-68, 3-(5-(((1S,2S)-2-(3-methoxyazetidin-1-yl)cycloheptyl)oxy)-1-oxoisoindolin-2-yl)piperidine-2,6-dione]: 90%.
`O=C1CCC(N2Cc3cc(O[C@H]4CCCCC[C@@H]4NCC4CC(F)(F)C4)ccc3C2=O)C(=O)N1` (stereo partly drawn) [I-69, 3-(5-(((1S,2S)-2-(((3,3-difluorocyclobutyl)methyl)amino)cycloheptyl)oxy)-1-oxoisoindolin-2-yl)piperidine-2,6-dione]: the IKZF2 % protein reduction at 10 µM worked out at 84%.
On the same count and under the same terms, next, `CCCN[C@H]1CCCC[C@@H]1Oc1ccc2c(c1)CN(C1CCC(=O)NC1=O)C2=O` (stereo partly drawn) [I-71, 3-(1-oxo-5-(((1S,2S)-2-(propylamino)cyclohexyl)oxy)isoindolin-2-yl)piperidine-2,6-dione]: 88%; `CCCN(CCC)[C@H]1CCCC[C@@H]1Oc1ccc2c(c1)CN(C1CCC(=O)NC1=O)C2=O` (stereo partly drawn) [I-72, 3-(5-(((1S,2S)-2-(dipropylamino)cyclohexyl)oxy)-1-oxoisoindolin-2-yl)piperidine-2,6-dione]: 57%; `O=C1CCC(N2Cc3cc(O[C@H]4CCCC[C@@H]4NCc4ccncc4)ccc3C2=O)C(=O)N1` (stereo partly drawn) [I-73, 3-(1-oxo-5-(((1S,2S)-2-((pyridin-4-ylmethyl)amino)cyclohexyl)oxy)isoindolin-2-yl)piperidine-2,6-dione]: 66%.
The same measure, in the same setting: to `O=C1CCC(N2Cc3cc(O[C@H]4CCCC[C@@H]4N4CC5(COC5)C4)ccc3C2=O)C(=O)N1` (stereo partly drawn) [I-74, 3-(5-(((1S,2S)-2-(2-oxa-6-azaspiro[3.3]heptan-6-yl)cyclohexyl)oxy)-1-oxoisoindolin-2-yl)piperidine-2,6-dione] belongs 58%.
Still for that read-out and setting: next, `O=C1CCC(N2Cc3cc(O[C@H]4CCCC[C@@H]4NCc4cccnc4)ccc3C2=O)C(=O)N1` (stereo partly drawn) [I-75, 3-(1-oxo-5-(((1S,2S)-2-((pyridin-3-ylmethyl)amino)cyclohexyl)oxy)isoindolin-2-yl)piperidine-2,6-dione]: 79%.
For `CC(C)n1cc(CN[C@H]2CCCC[C@@H]2Oc2ccc3c(c2)CN(C2CCC(=O)NC2=O)C3=O)cn1` (stereo partly drawn) [I-77, 3-(5-(((1S,2S)-2-(((1-isopropyl-1H-pyrazol-4-yl)methyl)amino)cyclohexyl)oxy)-1-oxoisoindolin-2-yl)piperidine-2,6-dione], the IKZF2 % protein reduction at 10 µM came to 86%.
On to `CCN(C)[C@H]1CCCC[C@@H]1Oc1ccc2c(c1)CN(C1CCC(=O)NC1=O)C2=O` (stereo partly drawn) [I-78, 3-(5-(((1S,2S)-2-(ethyl(methyl)amino)cyclohexyl)oxy)-1-oxoisoindolin-2-yl)piperidine-2,6-dione], for which the IKZF2 % protein reduction at 10 µM amounted to 50%.
The same measure, in the same setting: to `CCN[C@H]1CCCC[C@@H]1Oc1ccc2c(c1)CN(C1CCC(=O)NC1=O)C2=O` (stereo partly drawn) [I-79, 3-(5-(((1S,2S)-2-(ethylamino)cyclohexyl)oxy)-1-oxoisoindolin-2-yl)piperidine-2,6-dione] belongs 85%; to `CN(C)[C@H]1CCCC[C@@H]1Oc1ccc2c(c1)CN(C1CCC(=O)NC1=O)C2=O` (stereo partly drawn) [I-80, 3-(5-(((1S,2S)-2-(dimethylamino)cyclohexyl)oxy)-1-oxoisoindolin-2-yl)piperidine-2,6-dione], 65%.
As to `O=C1CCC(N2Cc3cc(O[C@H]4CCCC[C@@H]4NCC4COC4)ccc3C2=O)C(=O)N1` (stereo partly drawn) [I-81, 3-(5-(((1S,2S)-2-((oxetan-3-ylmethyl)amino)cyclohexyl)oxy)-1-oxoisoindolin-2-yl)piperidine-2,6-dione], the IKZF2 % protein reduction at 10 µM came to 85%.

Staying with this test, now noted: 24 h, read-out: IKZF2 % protein reduction at 10 μM, 24 h.
On to `CCN[C@H]1CCCCC[C@@H]1Oc1ccc2c(c1)CN(C1CCC(=O)NC1=O)C2=O` (stereo partly drawn) [I-57, 3-(5-(((1S,2S)-2-(ethylamino)cycloheptyl)oxy)-1-oxoisoindolin-2-yl)piperidine-2,6-dione], for which the IKZF2 % protein reduction at 10 µM worked out at 80%.
On to `O=C1CCC(N2Cc3cc(O[C@H]4CCCCC[C@@H]4NCc4ccccc4)ccc3C2=O)C(=O)N1` (stereo partly drawn) [I-58, 3-(5-(((1S,2S)-2-(benzylamino)cycloheptyl)oxy)-1-oxoisoindolin-2-yl)piperidine-2,6-dione], for which the IKZF2 % protein reduction at 10 µM is 75%.
The same measure, in the same setting: to `CCN(CC)[C@H]1CCCCC[C@@H]1Oc1ccc2c(c1)CN(C1CCC(=O)NC1=O)C2=O` (stereo partly drawn) [I-59, 3-(5-(((1S,2S)-2-(diethylamino)cycloheptyl)oxy)-1-oxoisoindolin-2-yl)piperidine-2,6-dione] belongs 39%; to `CCn1cc(CN[C@H]2CCCC[C@@H]2Oc2ccc3c(c2)CN(C2CCC(=O)NC2=O)C3=O)cn1` (stereo partly drawn) [I-76, 3-(5-(((1S,2S)-2-(((1-ethyl-1H-pyrazol-4-yl)methyl)amino)cyclohexyl)oxy)-1-oxoisoindolin-2-yl)piperidine-2,6-dione], 79%.
